# Results reported in patent US10435399B2, “HDAC6 inhibitory heterocyclic compound” (TAKEDA PHARMACEUTICAL COMPANY LIMITED, priority 2017, dated 2019).
# Biological target: T1, HDAC6 enzyme (Homo sapiens, UniProt Q9UBN7)
# T1 construct: transducing full length HDAC6 gene into Sf-9 insect cells; GST; purchased SignalChem; host or cells: Sf-9 insect cells
# T1 sequence (Q9UBN7 1-1215): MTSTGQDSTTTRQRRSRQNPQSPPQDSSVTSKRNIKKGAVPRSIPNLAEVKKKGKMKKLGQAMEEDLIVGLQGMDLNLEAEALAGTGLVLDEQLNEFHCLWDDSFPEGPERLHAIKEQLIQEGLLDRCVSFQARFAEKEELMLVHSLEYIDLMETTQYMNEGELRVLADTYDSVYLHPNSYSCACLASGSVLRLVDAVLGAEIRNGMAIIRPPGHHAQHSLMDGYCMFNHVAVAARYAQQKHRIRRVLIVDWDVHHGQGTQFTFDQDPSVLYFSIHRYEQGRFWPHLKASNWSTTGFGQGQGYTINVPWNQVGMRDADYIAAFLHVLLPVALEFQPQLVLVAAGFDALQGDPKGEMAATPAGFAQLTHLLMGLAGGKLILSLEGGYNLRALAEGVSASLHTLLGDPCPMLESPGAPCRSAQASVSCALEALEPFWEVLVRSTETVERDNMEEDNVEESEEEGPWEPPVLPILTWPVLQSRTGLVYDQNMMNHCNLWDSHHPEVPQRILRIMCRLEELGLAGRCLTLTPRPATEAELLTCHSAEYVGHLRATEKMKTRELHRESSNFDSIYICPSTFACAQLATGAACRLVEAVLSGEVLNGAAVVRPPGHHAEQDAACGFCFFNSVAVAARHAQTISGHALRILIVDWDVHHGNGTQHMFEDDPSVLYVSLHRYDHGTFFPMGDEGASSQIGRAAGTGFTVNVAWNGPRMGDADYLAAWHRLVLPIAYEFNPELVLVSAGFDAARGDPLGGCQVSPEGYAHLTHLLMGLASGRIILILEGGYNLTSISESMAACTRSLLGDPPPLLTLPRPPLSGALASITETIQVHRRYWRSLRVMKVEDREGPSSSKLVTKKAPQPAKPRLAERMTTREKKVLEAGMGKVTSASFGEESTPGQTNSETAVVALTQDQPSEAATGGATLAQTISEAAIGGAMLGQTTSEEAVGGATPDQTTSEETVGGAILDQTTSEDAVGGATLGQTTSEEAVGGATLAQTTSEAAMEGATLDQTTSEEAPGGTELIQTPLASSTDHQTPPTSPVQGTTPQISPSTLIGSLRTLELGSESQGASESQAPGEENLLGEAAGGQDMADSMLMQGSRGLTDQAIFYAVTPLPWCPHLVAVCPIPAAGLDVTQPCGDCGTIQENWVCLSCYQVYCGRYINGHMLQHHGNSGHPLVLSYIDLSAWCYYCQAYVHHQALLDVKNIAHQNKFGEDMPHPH
# Experiment: HDAC6 enzyme inhibitory activity (HDAC-Glo I/II Assay kit)
# Format: biochemical
# Settings: 10 μM; wells without enzyme = 100% inhibition
# Method in brief: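 Sf-9-derived GST-purified full-length HDAC6 + cpd, 60 min RT, 24 mM Tris pH 7.5/0.6 mM glutathione/0.01% Tween-20; add HDAC-Glo substrate-developer, 20 min RT; luminescence. No-enzyme = 100% inhibition.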
row,SMILES,HDAC6 inhibitory rate (%) (10 μM)
1,"O=C(N[C@@H]1CCCC[C@H]1N1Cc2ccc(-c3nnc(C(F)F)o3)cc2C1=O)C1CC1(F)F (stereo partly drawn) [Example 121, N-((1R,2R)-2-(6-(5-(difluoromethyl)-1,3,4-oxadiazol-2-yl)-1-oxo-1,3-dihydro-2H-isoindol-2-yl)cyclohexyl)-2,2-difluorocyclopropanecarboxamide (optical isomer)]",100%

# Same assay, conditions: 10 μM; wells without enzyme = 100% inhibition; read-out: HDAC6 inhibitory rate (%) (10 μM)
row,SMILES,inhibition at 10 µM
1,"O=C1c2cc(-c3nnc(C(F)F)o3)cc(F)c2CN1c1ccc(F)cc1-c1cccc(F)c1 [Example 383, 2-(3′,5-difluoro-biphenyl-2-yl)-6-(5-(difluoro-methyl)-1,3,4-oxadiazol-2-yl)-4-fluoroiso-indolin-1-one]",95%
2,"CC(C)(C)OC(=O)N[C@@H]1CCC(F)(F)C[C@H]1N1Cc2ccc(-c3nnc(C(F)F)o3)cc2C1=O [Example 634, tert-butyl ((1R,2R)-2-(6-(5-(difluoromethyl)-1,3,4-oxadiazol-2-yl)-1-oxo-1,3-dihydro-2H-isoindol-2-yl)-4,4-difluorocyclohexyl)carbamate]",99%
3,"O=C1c2cc(-c3nnc(C(F)F)o3)cc(F)c2CN1[C@@H]1CCOC[C@H]1NCC(F)(F)F [Example 360, 6-(5-(difluoromethyl)-1,3,4-oxadiazol-2-yl)-4-fluoro-2-((3S,4R)-3-((2,2,2-trifluoro-ethyl)amino)tetrahydro-2H-pyran-4-yl)isoindolin-1-one]",103%
4,"C[C@@H](C1CC1)N1Cc2ccc(-c3nnc(C(F)F)o3)cc2C1=O [Example 116, 2-((1S)-1-cyclopropylethyl)-6-(5-(difluoromethyl)-1,3,4-oxadiazol-2-yl)isoindolin-1-one]",98%
5,"O=C1c2cc(-c3nnc(C(F)F)o3)cnc2CN1[C@@H]1CCCC[C@H]1N1C(=O)c2ccccc2C1=O [Example 186, 2-((1R,2R)-2-(3-(5-(difluoromethyl)-1,3,4-oxadiazol-2-yl)-5-oxo-5,7-dihydro-6H-pyrrolo[3,4-b]pyridin-6-yl)cyclohexyl)-H-isoindole-1,3(2H)-dione]",101%
6,"O=C1c2cc(-c3nnc(C(F)F)o3)ccc2CN1N1CCOCC1c1ccccc1 (stereo not drawn) [Example 501, 6-(5-(difluoro-methyl)-1,3,4-oxadiazol-2-yl)-2-(3-phenyl-morpholin-4-yl) isoindolin-1-one]",98%
7,"COC(=O)N1CC[C@@H](c2ccc(F)cc2)[C@H](N2Cc3ccc(-c4nnc(C(F)F)o4)cc3C2=O)C1 (racemic) [Example 504, methyl (3SR,4SR)-3-(6-(5-(difluoro-methyl)-1,3,4-oxadiazol-2-yl)-1-oxo-1,3-dihydro-2H-isoindol-2-yl)-4-(4-fluoro-phenyl) piperidine-1-carboxylate]",100%
8,"Cn1cc(C2CCN(C(=O)OC(C)(C)C)CC2)c(N2Cc3ccc(-c4nnc(C(F)F)o4)cc3C2=O)n1 [Example 522, tert-butyl 4-(3-(6-(5-(difluoromethyl)-1,3,4-oxadiazol-2-yl)-1-oxo-1,3-dihydro-2H-isoindol-2-yl)-1-methyl-1H-pyrazol-4-yl)piperidine-1-carboxylate]",99%
9,"Cn1cc(C2=CCN(C(=O)OC(C)(C)C)CC2)c(N2Cc3ccc(-c4nnc(C(F)F)o4)cc3C2=O)n1 [Example 518, tert-butyl 4-(3-(6-(5-(difluoro-methyl)-1,3,4-oxadiazol-2-yl)-1-oxo-1,3-dihydro-2H-isoindol-2-yl)-1-methyl-1H-pyrazol-4-yl)-3,6-dihydro-pyridine-1(2H)-carboxylate]",99%
10,"COC(=O)N1CC[C@@H](N2Cc3ccc(-c4nnc(C(F)F)o4)cc3C2=O)[C@H](c2ccc(F)cc2)C1 [Example 505, methyl (3R,4R)-4-(6-(5-(difluoro-methyl)-1,3,4-oxadiazol-2-yl)-1-oxo-1,3-dihydro-2H-isoindol-2-yl)-3-(4-fluoro-phenyl) piperidine-1-carboxylate]",100%
11,"O=C1c2cc(-c3nnc(C(F)F)o3)ccc2CN1[C@@H]1CCCC[C@H]1NC(=O)C12CC(C(F)(F)F)(C1)C2 [Example 80, N-((1R,2R)-2-(6-(5-(difluoromethyl)-1,3,4-oxadiazol-2-yl)-1-oxo-1,3-dihydro-2H-isoindol-2-yl)cyclohexyl)-3-(trifluoromethyl)bicyclo[1.1.1]pentane-1-carboxamide]",101%
12,"CC(C)(C)OC(=O)N[C@@H]1CCCC[C@H]1N1Cc2c(F)cc(-c3nnc(C(F)F)o3)cc2C1=O [Example 148, tert-butyl ((1R,2R)-2-(6-(5-(difluoromethyl)-1,3,4-oxadiazol-2-yl)-4-fluoro-1-oxo-1,3-dihydro-2H-isoindol-2-yl)cyclohexyl)carbamate]",99%
13,"CC(=O)N1CCC(C2CCCCN2N2Cc3ccc(-c4nnc(C(F)F)o4)cc3C2=O)CC1 (stereo not drawn) [Example 611, 2-(1′-acetyl-2,4′-bipiperidin-1-yl)-6-(5-(difluoromethyl)-1,3,4-oxadiazol-2-yl)isoindolin-1-one]",101%
14,"CCC(=O)N[C@@H]1CCCC[C@H]1N1Cc2ccc(-c3nnc(C(F)F)o3)cc2C1=O [Example 7, N-((1R,2R)-2-(6-(5-(difluoromethyl)-1,3,4-oxadiazol-2-yl)-1-oxo-1,3-dihydro-2H-isoindol-2-yl)cyclohexyl)propanamide]",99%
15,"O=C1c2cc(-c3nnc(C(F)F)o3)cc(F)c2CN1C[C@H]1CC(F)(F)CN1S(=O)(=O)C1CC1 [Example 356, 2-(((2R)-1-(cyclopropyl-sulfonyl)-4,4-difluoro-pyrrolidin-2-yl)methyl)-6-(5-(difluoromethyl)-1,3,4-oxadiazol-2-yl)-4-fluoro-isoindolin-1-one]",101%
16,"COc1ccc(CN2Cc3ncc(-c4nnc(C(F)F)o4)cc3C2=O)c(OC)c1 [Example 272, 3-(5-(difluoromethyl)-1,3,4-oxadiazol-2-yl)-6-(2,4-dimethoxybenzyl)-6,7-dihydro-5H-pyrrolo-[3,4-b]pyridin-5-one]",100%
17,"O=C1c2cc(-c3nnc(C(F)F)o3)cnc2CN1[C@@H]1CCCC[C@H]1Oc1ccc(F)cc1 (racemic) [Example 535, 3-(5-(difluoromethyl)-1,3,4-oxadiazol-2-yl)-6-((1RS,2RS)-2-(4-fluorophenoxy)cyclohexyl)-6,7-dihydro-5H-pyrrolo[3,4-b]pyridin-5-one]",99%
18,"COc1ccccc1-c1ccccc1N1Cc2ccc(-c3nnc(C(F)F)o3)cc2C1=O [Example 156, 6-(5-(difluoromethyl)-1,3,4-oxadiazol-2-yl)-2-(2′-methoxybiphenyl-2-yl)isoindolin-1-one]",100%
19,"CN1CCN([C@@H]2CCCC[C@H]2N2Cc3ccc(-c4nnc(C(F)F)o4)cc3C2=O)C1=O [Example 157, 6-(5-(difluoromethyl)-1,3,4-oxadiazol-2-yl)-2-((1R,2R)-2-(3-methyl-2-oxoimidazolidin-1-yl)cyclohexyl)isoindolin-1-one]",98%
20,"O=C1c2cc(-c3nnc(C(F)F)o3)cnc2CN1[C@@H]1CCCC[C@H]1n1cccn1 (relative stereo) [Example 539, 3-(5-(difluoromethyl)-1,3,4-oxadiazol-2-yl)-6-((1R*,2R*)-2-(1H-pyrazol-1-yl)cyclohexyl)-6,7-dihydro-5H-pyrrolo[3,4-b]pyridin-5-one (optical isomer)]",99%
